# Measured values taken from ChEMBL document CHEMBL3351862, “Coumarin hybrids as novel therapeutic agents” (Bioorg Med Chem, 2014).
# How the values were obtained:
# [1] = system: Staphylococcus aureus; assay: Antimicrobial activity against methicillin-resistant Staphylococcus aureus; type: functional
# [2] = system: Human immunodeficiency virus; assay: Antiviral activity against Human immunodeficiency virus; type: functional, organism-based; conditions: Human immunodeficiency virus 1
# [3] = system: Human immunodeficiency virus 1; assay: Antiviral activity against Human immunodeficiency virus 1 3B; type: functional, organism-based
# [4] = system: Human immunodeficiency virus 2; assay: Antiviral activity against Human immunodeficiency virus 2 ROD; type: functional, organism-based; conditions: Human immunodeficiency virus 2, ISOLATE ROD
# [5] = system: Human immunodeficiency virus 1; assay: Antiviral activity against Human immunodeficiency virus 1 harboring reverse transcriptase K103N/Y181C double mutant; type: functional, organism-based
# [6] = biological target: Acetylcholinesterase (Homo sapiens, UniProt P22303); assay: Inhibition of AChE (unknown origin)
# [7] = system: KB; assay: Anticancer activity against human KB cells; type: functional, cell-based
# [8] = system: Platelet; assay: Inhibition of platelet (unknown origin) aggregation; type: functional, cell-based
# [9] = system: SK-OV-3; assay: Growth inhibition of human SKOV3 cells at 50 uM; type: functional; conditions: read-out: GI
# [10] = system: CCRF-CEM; assay: Growth inhibition of human CCRF-CEM cells at 50 uM; type: functional; conditions: read-out: GI
# [11] = system: MCF7; assay: Growth inhibition of human MCF7 cells at 50 uM; type: functional; conditions: read-out: GI
# [12] = biological target: Proto-oncogene tyrosine-protein kinase Src (Homo sapiens, UniProt P12931); assay: Inhibition of Src kinase (unknown origin)
# [13] = biological target: T1, Cholinesterase (Homo sapiens, UniProt P06276); assay: Inhibition of BuChE (unknown origin)
# [14] = biological target: T1, Cholinesterase; assay: Ratio of galamthamine IC50 to compound IC50 for BuChE (unknown origin)
# T1 sequence (P06276 whole entry): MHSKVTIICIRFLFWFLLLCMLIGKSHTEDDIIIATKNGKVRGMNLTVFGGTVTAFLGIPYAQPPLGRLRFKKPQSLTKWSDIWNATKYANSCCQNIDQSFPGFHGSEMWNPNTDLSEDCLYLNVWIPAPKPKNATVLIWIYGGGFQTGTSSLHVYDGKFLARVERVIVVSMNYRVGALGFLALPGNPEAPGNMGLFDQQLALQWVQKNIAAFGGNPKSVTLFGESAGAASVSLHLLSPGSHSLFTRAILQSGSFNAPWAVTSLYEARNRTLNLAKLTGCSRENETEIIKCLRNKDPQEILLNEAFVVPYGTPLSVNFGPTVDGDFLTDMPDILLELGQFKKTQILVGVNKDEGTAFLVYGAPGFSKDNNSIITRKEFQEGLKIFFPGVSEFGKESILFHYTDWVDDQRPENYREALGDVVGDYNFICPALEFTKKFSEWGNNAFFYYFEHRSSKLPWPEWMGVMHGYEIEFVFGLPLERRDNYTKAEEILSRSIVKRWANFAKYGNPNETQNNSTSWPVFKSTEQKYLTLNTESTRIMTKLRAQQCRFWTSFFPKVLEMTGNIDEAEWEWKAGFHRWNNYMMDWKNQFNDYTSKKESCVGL
# Chain of Acetylcholinesterase (P22303 whole entry): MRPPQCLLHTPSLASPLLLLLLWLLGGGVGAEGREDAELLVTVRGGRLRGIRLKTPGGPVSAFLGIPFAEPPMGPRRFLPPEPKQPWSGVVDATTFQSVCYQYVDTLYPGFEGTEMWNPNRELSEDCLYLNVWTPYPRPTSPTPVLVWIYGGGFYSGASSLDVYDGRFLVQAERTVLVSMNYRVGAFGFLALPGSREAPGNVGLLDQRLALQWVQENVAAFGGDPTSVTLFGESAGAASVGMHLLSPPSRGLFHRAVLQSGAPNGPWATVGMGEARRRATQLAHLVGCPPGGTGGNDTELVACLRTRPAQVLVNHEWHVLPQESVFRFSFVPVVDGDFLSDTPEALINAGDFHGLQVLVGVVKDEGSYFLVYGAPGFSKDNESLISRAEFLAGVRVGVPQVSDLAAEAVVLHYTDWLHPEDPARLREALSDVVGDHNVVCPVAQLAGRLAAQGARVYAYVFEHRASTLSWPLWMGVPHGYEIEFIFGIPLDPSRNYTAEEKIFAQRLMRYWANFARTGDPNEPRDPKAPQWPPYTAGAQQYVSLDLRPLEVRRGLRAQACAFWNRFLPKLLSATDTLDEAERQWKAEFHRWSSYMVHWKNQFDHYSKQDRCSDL
# Chain of Proto-oncogene tyrosine-protein kinase Src (P12931 2-536 limits assumed): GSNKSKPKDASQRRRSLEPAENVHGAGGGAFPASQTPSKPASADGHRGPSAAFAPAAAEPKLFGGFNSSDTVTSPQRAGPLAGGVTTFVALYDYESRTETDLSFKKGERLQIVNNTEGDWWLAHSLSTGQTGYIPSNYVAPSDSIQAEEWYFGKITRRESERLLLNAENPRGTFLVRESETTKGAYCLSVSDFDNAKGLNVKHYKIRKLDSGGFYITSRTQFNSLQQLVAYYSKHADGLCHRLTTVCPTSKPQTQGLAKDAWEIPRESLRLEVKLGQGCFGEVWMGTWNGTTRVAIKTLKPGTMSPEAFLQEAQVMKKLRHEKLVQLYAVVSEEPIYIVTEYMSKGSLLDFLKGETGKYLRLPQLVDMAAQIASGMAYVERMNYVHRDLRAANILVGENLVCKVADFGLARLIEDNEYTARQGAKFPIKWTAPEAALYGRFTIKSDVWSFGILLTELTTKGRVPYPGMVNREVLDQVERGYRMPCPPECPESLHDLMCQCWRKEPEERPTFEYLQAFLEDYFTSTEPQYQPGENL
structure (smiles),measurement,setting,value
Cc1cc(=O)oc2cc(OCc3cn(Cc4cc(=O)oc5ccc(Cl)cc45)nn3)ccc12,MIC,[1],6.25 µg/mL
O=c1oc2ccccc2cc1CSc1nc2cncnc2[nH]1,EC50,[2],2 µM
CCOC(=O)CNc1nc(Nc2ccc(C)cc2)nc(OCc2cc3ccccc3oc2=O)n1,IC50,[3],1 µg/mL
same,IC50,[4],1 µg/mL
same,IC50,[5],1 µg/mL
O=c1oc2ccccc2c(O)c1-c1csc(Nc2cccc([N+](=O)[O-])c2)n1,MIC,[1],31.2 µg/mL
O=c1oc2ccccc2cc1CSc1nc2cccnc2[nH]1,EC50,[2],6.8 µM
Cc1cc(=O)oc2cc(OCCN3CCN(CC(=O)Nc4c5c(nc6ccccc46)CCCC5)CC3)ccc12,IC50,[6],0.092 µM
COc1cc(OC)cc(-c2cc3ccc(OC(C)=O)c(OC(C)=O)c3oc2=O)c1,IC50,[7],5180 µM
O=c1oc2ccc(O)cc2cc1-c1cc(O)cc(O)c1,IC50,[8],10.6 µM
O=c1oc2ccccc2cc1CSc1nc2ccccc2o1,EC50,[2],12 µM
COc1ccc(/C=C/C(=O)c2c(O)ccc3c(C)cc(=O)oc23)cc1O,inhibition of growth at 50 µM,[9],63%
same,inhibition of growth at 50 µM,[10],50%
same,inhibition of growth at 50 µM,[11],43%
same,IC50,[12],14.5 µM
Cc1cc(=O)oc2cc(OCCCCCCCN3CCN(CC(=O)Nc4c5c(nc6ccccc46)CCCC5)CC3)ccc12,IC50,[13],0.099 µM
same,Ratio IC50,[14],128
